Source: ChEMBL document CHEMBL5143564, “PES derivative PESA is a potent tool to globally profile cellular targets of PES” (Bioorg Med Chem Lett, 2022)
Activity calls are given as the source filed them. No cut-off for these calls is given here.

Experiments:
[1] = test system: DOHH-2; test: Cytotoxicity against human DOHH-2 cells measured after 72 hrs; type: functional, cell-based
[2] = biological target: Glutathione S-transferase P (Homo sapiens) (UniProt P09211); test: Binding affinity to GSTP1 in human DOHH-2 cells by MS analysis; type: cell-based
Sequence of Glutathione S-transferase P (Homo sapiens) (P09211 2-210 limits assumed): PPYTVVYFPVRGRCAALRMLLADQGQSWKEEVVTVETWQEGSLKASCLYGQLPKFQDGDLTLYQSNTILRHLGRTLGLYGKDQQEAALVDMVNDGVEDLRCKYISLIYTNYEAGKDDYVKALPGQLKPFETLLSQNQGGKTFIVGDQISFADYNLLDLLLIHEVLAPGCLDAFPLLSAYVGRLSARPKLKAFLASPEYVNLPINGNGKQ

[3] = biological target: Glutathione S-transferase 3, mitochondrial (Homo sapiens) (UniProt O14880); test: Binding affinity to MGST3 in human MDA-MB-453 cells measured after 6 hrs by pull-down assay; type: cell-based; settings: dose <= 20.0 µM, DDE = dose-dependent effect
Sequence of Glutathione S-transferase 3, mitochondrial (Homo sapiens) (O14880 whole entry): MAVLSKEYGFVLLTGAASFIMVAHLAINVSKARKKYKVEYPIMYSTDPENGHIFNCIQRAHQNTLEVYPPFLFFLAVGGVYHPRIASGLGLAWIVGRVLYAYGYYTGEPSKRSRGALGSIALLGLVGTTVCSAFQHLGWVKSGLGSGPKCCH

[4] = biological target: T1, Peroxiredoxin-6 (Homo sapiens) (UniProt P30041); test: Binding affinity to PRDX6 in human DOHH-2 cells by MS analysis; type: cell-based
T1 sequence (whole entry): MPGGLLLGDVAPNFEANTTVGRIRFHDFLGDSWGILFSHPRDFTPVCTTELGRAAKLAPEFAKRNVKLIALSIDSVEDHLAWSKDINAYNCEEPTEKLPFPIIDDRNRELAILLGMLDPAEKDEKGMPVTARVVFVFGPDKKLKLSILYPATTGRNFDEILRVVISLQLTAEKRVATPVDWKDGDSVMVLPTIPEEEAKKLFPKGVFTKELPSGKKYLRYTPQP

[5] = biological target: T1, Peroxiredoxin-6 (Homo sapiens); test: Binding affinity to PRDX6 in human DOHH-2 cells measured after 6 hrs by pull-down assay; type: cell-based; settings: DDE = dose-dependent effect
[6] = test system: DOHH-2; test: Induction of autophagy in human DOHH-2 cells assessed as change in transformation of LC3B1 to LC3B2 expression at 0.5 to 8 uM measured after 24 hrs by Western blot analysis; type: functional, cell-based; settings: dose 0.5-8 µM
[7] = biological target: T2, Plastin-2 (Homo sapiens) (UniProt P13796); test: Binding affinity to plastin-2 in human DOHH-2 cells by MS analysis; type: cell-based
T2 sequence (whole entry): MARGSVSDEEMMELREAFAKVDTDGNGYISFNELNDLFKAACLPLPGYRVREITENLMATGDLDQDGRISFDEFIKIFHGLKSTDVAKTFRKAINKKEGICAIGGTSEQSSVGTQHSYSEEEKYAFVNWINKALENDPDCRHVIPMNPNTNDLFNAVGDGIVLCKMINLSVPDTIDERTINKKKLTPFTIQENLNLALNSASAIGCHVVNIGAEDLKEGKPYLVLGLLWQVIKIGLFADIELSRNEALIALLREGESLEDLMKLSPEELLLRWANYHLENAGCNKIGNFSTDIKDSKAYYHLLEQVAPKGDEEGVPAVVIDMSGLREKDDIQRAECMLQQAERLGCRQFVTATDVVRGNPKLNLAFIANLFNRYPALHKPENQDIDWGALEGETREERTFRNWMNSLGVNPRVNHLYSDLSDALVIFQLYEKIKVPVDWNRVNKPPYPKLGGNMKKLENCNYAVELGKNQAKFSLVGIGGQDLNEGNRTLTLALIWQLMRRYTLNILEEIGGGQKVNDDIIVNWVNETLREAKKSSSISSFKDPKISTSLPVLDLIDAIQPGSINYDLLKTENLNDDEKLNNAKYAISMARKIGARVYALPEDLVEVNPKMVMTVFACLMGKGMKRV

[8] = biological target: T3, Protein disulfide-isomerase A4 (Homo sapiens) (UniProt P13667); test: Binding affinity to PDIA4 in human DOHH-2 cells by MS analysis; type: cell-based
T3 sequence (whole entry): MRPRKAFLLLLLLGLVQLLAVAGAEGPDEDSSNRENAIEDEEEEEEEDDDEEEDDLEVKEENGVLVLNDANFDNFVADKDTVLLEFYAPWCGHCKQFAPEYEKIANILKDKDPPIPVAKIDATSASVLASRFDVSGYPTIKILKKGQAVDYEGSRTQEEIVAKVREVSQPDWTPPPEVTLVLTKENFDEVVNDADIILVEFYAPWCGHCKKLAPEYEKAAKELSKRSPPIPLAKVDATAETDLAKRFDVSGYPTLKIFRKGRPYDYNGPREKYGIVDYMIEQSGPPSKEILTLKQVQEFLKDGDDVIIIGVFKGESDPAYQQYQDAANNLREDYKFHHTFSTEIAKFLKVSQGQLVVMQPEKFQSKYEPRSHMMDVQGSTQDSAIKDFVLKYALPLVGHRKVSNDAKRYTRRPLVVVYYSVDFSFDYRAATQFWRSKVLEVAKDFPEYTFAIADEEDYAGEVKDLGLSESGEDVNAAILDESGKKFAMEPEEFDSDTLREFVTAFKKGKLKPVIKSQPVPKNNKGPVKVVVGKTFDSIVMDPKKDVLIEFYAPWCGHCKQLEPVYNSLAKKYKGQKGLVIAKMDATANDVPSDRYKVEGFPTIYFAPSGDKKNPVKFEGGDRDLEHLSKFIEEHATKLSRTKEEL

[9] = biological target: T2, Plastin-2 (Homo sapiens); test: Binding affinity to plastin-2 in human DOHH-2 cells measured after 6 hrs by pull-down assay; type: cell-based; settings: DDE = dose-dependent effect
[10] = test system: Jurkat; test: Cytotoxicity against human Jurkat T cells up to 20 uM measured after 24 hrs; type: functional, cell-based
[11] = biological target: Coronin-1A (Homo sapiens) (UniProt P31146); test: Binding affinity to coronin-1A in human DOHH-2 cells by MS analysis; type: cell-based
Sequence of Coronin-1A (Homo sapiens) (P31146 whole entry): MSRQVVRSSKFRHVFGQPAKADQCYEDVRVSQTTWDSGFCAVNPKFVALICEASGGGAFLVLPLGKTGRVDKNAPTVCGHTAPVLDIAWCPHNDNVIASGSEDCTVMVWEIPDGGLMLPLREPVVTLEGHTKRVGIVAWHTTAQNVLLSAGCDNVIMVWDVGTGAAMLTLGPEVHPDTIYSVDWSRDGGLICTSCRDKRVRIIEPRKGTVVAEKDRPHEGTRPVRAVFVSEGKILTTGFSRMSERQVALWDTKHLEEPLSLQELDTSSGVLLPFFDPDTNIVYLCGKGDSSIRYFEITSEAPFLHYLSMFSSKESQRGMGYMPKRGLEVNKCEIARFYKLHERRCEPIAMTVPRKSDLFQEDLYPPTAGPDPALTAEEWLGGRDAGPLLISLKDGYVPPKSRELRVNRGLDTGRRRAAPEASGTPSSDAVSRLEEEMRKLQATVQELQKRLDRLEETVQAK

[12] = biological target: Elongation factor 2 (Homo sapiens) (UniProt P13639); test: Binding affinity to elongation factor 2 in human DOHH-2 cells by MS analysis; type: cell-based
[13] = test system: DOHH-2; test: Up regulation of HSP90alpha expression in human DOHH-2 cells at 0.5 to 8 uM measured after 24 hrs by Western blot analysis; type: functional, cell-based; settings: dose 0.5-8 µM
[14] = biological target: T4, Protein disulfide-isomerase A3 (Homo sapiens) (UniProt P30101); test: Binding affinity to PDIA3 in human DOHH-2 cells by MS analysis; type: cell-based
T4 sequence (whole entry): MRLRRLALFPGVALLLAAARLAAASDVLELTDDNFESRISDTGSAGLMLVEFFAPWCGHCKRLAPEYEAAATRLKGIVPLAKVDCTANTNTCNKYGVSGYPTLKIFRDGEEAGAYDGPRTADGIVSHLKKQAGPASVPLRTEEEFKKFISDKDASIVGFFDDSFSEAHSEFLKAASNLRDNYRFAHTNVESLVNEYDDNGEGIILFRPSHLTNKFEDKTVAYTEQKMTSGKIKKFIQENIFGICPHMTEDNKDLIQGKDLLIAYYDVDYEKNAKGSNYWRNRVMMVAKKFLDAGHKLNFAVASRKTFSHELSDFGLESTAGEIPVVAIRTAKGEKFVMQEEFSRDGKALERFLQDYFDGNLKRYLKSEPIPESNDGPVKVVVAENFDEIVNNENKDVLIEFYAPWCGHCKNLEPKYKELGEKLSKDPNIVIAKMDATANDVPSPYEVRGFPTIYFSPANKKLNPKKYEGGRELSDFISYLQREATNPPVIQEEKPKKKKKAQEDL

Activity [2]: Active
Activity [3]: Dde
Activity [4]: Active
Activity [5]: Dde
Activity [7]: Active
Activity [8]: Active
Activity [9]: Dde
Activity [11]: Active
Activity [12]: Active
Activity [14]: Active
Structure (SMILES): C#Cc1cccc(C#CS(N)(=O)=O)c1
Activity [1]: Active
Activity [6]: Active
Activity [10]: Active
Activity [13]: Active
